Measurements published in US9296722B2, “Azolyl urea compounds and methods of use thereof” (Ambit Biosciences Corporation, priority 2010, dated 2016).
pIC50, pKd: −log10 of the molar value.

What was measured:
[1] = target: kinase panel containing either 359 or 386 distinct kinases; assay: Competition binding assay, selectivity score (S10) against a panel of kinases; conditions: compounds at 10 μM; fraction of kinases with percent of control less than 10
Method: Competition binding assays used herein were developed, validated and performed as described in Fabian et al., Nature Biotechnology 2005, 23, 329-336. Kinases were produced as fusions to T7 phage (See, Fabian et al. or WO04/015142) or alternatively, the kinases were expressed in HEK-293 cells and subsequently tagged with DNA for PCR detection (See, WO08/005,310). […] The liganded beads were blocked with excess biotin and washed with blocking buffer (SeaBlock (Pierce), 1% BSA, 0.05% Tween 20, 1 mM DTT) to remove unbound ligand and to reduce non-specific binding. […] Test compounds were prepared as 100× stocks in DMSO and diluted into the aqueous environment. Kds were determined using an eleven point threefold serial dilutions. DMSO or control compounds were was added to control assays lacking a test compound. Primary screen assays were performed in polypropylene 384-well plates in a final volume of 20-40 μL, while Kd determinations were performed in polystyrene 96-well plates in a final volume of […]. […] The kinase concentration in the eluates was measured by quantitative PCR.
A selectivity score (S10) is a quantitative measure of selectivity of a compound against a panel of kinases. An S10 was calculated for a compound by dividing the number of kinases found to have a percent of control (DMSO) less than 10 by the total number of distinct kinases tested (excluding mutant variants). Percent of control (POC) is calculated by subtracting the signal of the control compound
(POC=0) from the signal of the test compound and dividing the outcome by the signal of DMSO (POC=100) minus the signal of the control compound. For the compounds disclosed herein, S10 scores were obtained by testing the compounds at 10 μM concentration in a kinase panel containing either 359 or 386 distinct kinases.

CSF1R (human) = target: T1, CSF1R (human) (Homo sapiens, UniProt P07333); assay: Competition binding assay, CSF1R (human) Kd
T1 construct: made in house; host or cells: T7 phage display or HEK-293 cells (alternatives, not resolved per kinase)
T1 sequence (P07333 20-972): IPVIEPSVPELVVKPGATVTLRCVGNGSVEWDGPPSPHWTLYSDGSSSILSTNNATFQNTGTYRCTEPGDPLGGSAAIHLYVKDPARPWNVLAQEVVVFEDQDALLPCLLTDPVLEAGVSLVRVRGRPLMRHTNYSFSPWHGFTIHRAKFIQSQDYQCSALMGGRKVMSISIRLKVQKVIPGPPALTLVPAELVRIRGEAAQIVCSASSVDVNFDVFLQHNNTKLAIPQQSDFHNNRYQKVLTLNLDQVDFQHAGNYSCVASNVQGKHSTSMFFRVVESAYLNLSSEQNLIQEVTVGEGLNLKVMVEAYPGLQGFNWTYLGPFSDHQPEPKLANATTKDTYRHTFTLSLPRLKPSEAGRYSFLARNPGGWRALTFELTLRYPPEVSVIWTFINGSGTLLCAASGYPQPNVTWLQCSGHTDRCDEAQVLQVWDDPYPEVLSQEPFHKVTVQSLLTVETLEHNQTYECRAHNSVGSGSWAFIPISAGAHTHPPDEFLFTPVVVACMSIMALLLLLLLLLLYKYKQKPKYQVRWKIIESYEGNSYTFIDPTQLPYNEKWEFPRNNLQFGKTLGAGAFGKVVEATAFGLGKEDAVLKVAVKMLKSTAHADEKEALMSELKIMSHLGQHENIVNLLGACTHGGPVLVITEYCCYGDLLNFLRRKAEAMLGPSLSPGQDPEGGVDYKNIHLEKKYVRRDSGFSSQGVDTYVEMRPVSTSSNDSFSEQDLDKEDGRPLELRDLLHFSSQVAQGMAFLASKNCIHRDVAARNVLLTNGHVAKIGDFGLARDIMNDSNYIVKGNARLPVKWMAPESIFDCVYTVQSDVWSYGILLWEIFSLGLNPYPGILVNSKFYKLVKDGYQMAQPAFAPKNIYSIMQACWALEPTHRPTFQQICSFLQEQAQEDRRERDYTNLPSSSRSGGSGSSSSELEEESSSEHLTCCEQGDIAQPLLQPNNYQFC
Method: The liganded beads were blocked with excess biotin and washed with blocking buffer (SeaBlock (Pierce), 1% BSA, 0.05% Tween 20, 1 mM DTT) to remove unbound ligand and to reduce non-specific binding. […] Test compounds were prepared as 100× stocks in DMSO and diluted into the aqueous environment. Kds were determined using an eleven point threefold serial dilutions. DMSO or control compounds were was added to control assays lacking a test compound. […] The kinase concentration in the eluates was measured by quantitative PCR.

M-NFS-60 cells = assay: M-NFS-60 cell proliferation assay; format: cell-based, mouse; design: CSF1R Cell Proliferation (M-NFS-60) IC50 (nM): scale not given here; conditions: 72 hours incubation, Alamar Blue, M-CSF-dependent cells; for pIC50: Mus musculus, read-out: CSF1R Cell Proliferation (M-NFS-60) IC50
Method: In certain embodiments, the compounds disclosed herein are tested in an M-NFS-60 cell proliferation assay to determine their cellular potency against CSF-1R. M-NFS-60s are mouse monocytic cells that depend on the binding of the ligand M-CSF to its receptor, CSF-1R, to proliferate Inhibition of CSF-1R kinase activity will cause reduced growth and/or cell death. This assay assesses the potency of compounds as CSF-1R inhibitors by measuring the reduction of Alamar Blue reagent by viable cells. An exemplary assay is described in the Examples section.
The compounds disclosed herein were tested in an M-NFS-60 cell proliferation assay to determine their cellular potency against CSF1R. M-NFS-60s are mouse monocytic cells that depend on the binding of the ligand M-CSF to its receptor, CSF1R, to proliferate Inhibition of CSF1R kinase activity will cause reduced growth and/or cell death. This assay assesses the potency of compounds as CSF1R inhibitors by measuring the reduction of Alamar Blue reagent by viable cells.
On day one of the experiment, M-NFS-60 cells were maintained in RPMI complete medium (Omega Scientific) plus 10% FBS supplemented with 20 ng/mL of M-CSF (R&D Systems). 96-well TC-treated, flat bottom plates were seeded at 10,000 cell/well at a volume of 100 μL per well. The cells were cultured overnight at 37° C. under 5% CO2.
On day two, compounds were added to the cells at 9 different concentrations, with half-log intervals alongside a control reference compound serving as a positive control. Final DMSO concentration was kept at 0.5% for a final volume of 200 μL. The compounds were allowed to incubate with the cells for 72 hours at 37° C. under 5% CO2.
On day five of the experiment, 40 μl of Alamar Blue reagent was added to each well and allowed to incubate for 3 hours. Alamar Blue fluorescence was read using SoftMax Pro software at 560 nm (excitation) and 590 nm (emission). IC50s were generated as an average of duplicates and represents the concentration of test compound that achieves 50% inhibition of cellular proliferation compared to control.

| Compound | Kinase Specificity (S10) [1] | pKd (CSF1R (human)) | pIC50 (M-NFS-60 cells) | CSF1R Cell Proliferation (M-NFS-60) IC50 (nM) (M-NFS-60 cells) |
| --- | --- | --- | --- | --- |
| CC(C)(C)c1cc(NC(=O)Nc2ccc(NC(=O)c3ccc(OC4CCN(C(C)(C)C)CC4)cn3)cc2)no1 | B (0.03 < B ≦ 0.05) |  |  |  |
| CCN1CCC(Oc2ccnc(C(=O)Nc3ccc(NC(=O)Nc4cc(C(C)(C)C)on4)cc3)c2)CC1 | B (0.03 < B ≦ 0.05) |  |  |  |
| CC(C)(C)c1cc(NC(=O)Nc2ccc(NC(=O)c3ccc(OC4CCN(C5COC5)C4)cn3)cc2)no1 (stereo not shown) | B (0.03 < B ≦ 0.05) | > 8.52 | ≥ 7.00 |  |
| CC(C)(C)c1cc(NC(=O)Nc2ccc(NC(=O)c3ccc(OC4CCN(C5CC5)CC4)cn3)cc2)no1 | A (A ≦ 0.03) |  |  |  |
| CC(C)(C)c1cc(NC(=O)Nc2ccc(NC(=O)c3ccc(OC4CCNCC4)cn3)cc2)no1 | C (C > 0.05) |  |  |  |
| CN1C2CCC1CC(Oc1ccc(C(=O)Nc3ccc(NC(=O)Nc4cc(C(C)(C)C)on4)cc3)nc1)C2 (stereo not shown) | C (C > 0.05) | > 8.52 | ≥ 7.00 |  |
| CC(C)N1CCC(Oc2ccc(C(=O)Nc3ccc(NC(=O)Nc4cc(C(C)(C)C)no4)cc3)nc2)CC1 | B (0.03 < B ≦ 0.05) | 8.00 to 8.52 | ≥ 7.00 |  |
| CC(C)N1CCC(Oc2ccc(C(=O)Nc3ccc(NC(=O)Nc4cc(C(C)(C)C)on4)cc3)nc2)CC1 | B (0.03 < B ≦ 0.05) |  |  |  |
| CC(C)(C)c1cc(NC(=O)Nc2ccc(NC(=O)c3ccc(OC[C@H]4CCCN5CCCC[C@@H]45)cn3)cc2)no1 | C (C > 0.05) | > 8.52 | ≥ 7.00 |  |
| CCN1CCC(Cc2ccc(C(=O)Nc3ccc(NC(=O)Nc4cc(C(C)(C)C)on4)cc3)nc2)CC1 | B (0.03 < B ≦ 0.05) |  |  |  |
| CCN1CCC(Oc2ccc(C(=O)Nc3ccc(NC(=O)Nc4cc(C(C)(C)C(F)(F)F)on4)cc3)nc2)CC1 | C (C > 0.05) | > 8.52 | ≥ 7.00 |  |
| CC(C)(C)c1cc(NC(=O)Nc2ccc(NC(=O)c3ccc(OC4CCN(CC(F)(F)F)CC4)cn3)cc2)no1 | A (A ≦ 0.03) |  |  |  |
| CCN1CCC(c2ccc(C(=O)Nc3ccc(NC(=O)Nc4cc(C(C)(C)C)on4)cc3)nc2)CC1 | B (0.03 < B ≦ 0.05) |  |  |  |
| CC(C)N1CC[C@@H](COc2ccc(C(=O)Nc3ccc(NC(=O)Nc4cc(C(C)(C)C)on4)cc3)nc2)C1 | C (C > 0.05) | > 8.52 | ≥ 7.00 |  |
| CCN1CCC(Oc2ccc(C(=O)Nc3ccc(NC(=O)Nc4cc(C(C)(C)F)no4)cc3)nc2)CC1 | A (A ≦ 0.03) | > 8.52 |  | A/B |
| CC1(C)CC(Oc2ccc(C(=O)Nc3ccc(NC(=O)Nc4cc(C(C)(C)C)on4)cc3)nc2)CC(C)(C)N1 | C (C > 0.05) |  |  |  |
| CC(C)(C)c1cc(NC(=O)Nc2ccc(NC(=O)c3cc(OC4CCNCC4)ccn3)cc2)no1 | B (0.03 < B ≦ 0.05) |  |  |  |
| CN1CCN(Cc2ccc(C(=O)Nc3ccc(NC(=O)Nc4cc(C(C)(C)C)on4)cc3)nc2)CC1 | A (A ≦ 0.03) |  |  |  |
| CN1C(C)(C)CC(Oc2ccc(C(=O)Nc3ccc(NC(=O)Nc4cc(C(C)(C)C)on4)cc3)nc2)CC1(C)C | C (C > 0.05) |  |  |  |
| CCN1CCC(Oc2ccc(C(=O)Nc3ccc(NC(=O)Nc4cc(C(C)(C)C)on4)cc3)nc2)CC1 | C (C > 0.05) |  |  |  |

Now from value to compound, other results behind:

| Kinase Specificity (S10) [1] | pKd (CSF1R (human)) | Compound | pIC50 (M-NFS-60 cells) | CSF1R Cell Proliferation (M-NFS-60) IC50 (nM) (M-NFS-60 cells) |
| --- | --- | --- | --- | --- |
| A (A ≦ 0.03) | > 8.52 | CCN1C(C)(C)CC(Oc2ccc(C(=O)Nc3ccc(NC(=O)Nc4cc(C(C)(C)C)on4)cc3)nc2)CC1(C)C | ≥ 7.00 |  |
| B (0.03 < B ≦ 0.05) | > 8.52 | CN(C)C(=O)CN1CCC(Oc2ccc(C(=O)Nc3ccc(NC(=O)Nc4cc(C(C)(C)C)on4)cc3)nc2)C1 (stereo not shown) | ≥ 7.00 |  |
| B (0.03 < B ≦ 0.05) | > 8.52 | CCN1CCC(Oc2ccc(C(=O)Nc3ccc(NC(=O)Nc4cc(C(C)(C)C)on4)cc3)nc2)C1 (stereo not shown) | ≥ 7.00 |  |
| C (C > 0.05) | > 8.52 | CN1C(C)(C)CC(C)(Oc2ccc(C(=O)Nc3ccc(NC(=O)Nc4cc(C(C)(C)C)on4)cc3)nc2)CC1(C)C | ≥ 7.00 |  |
| B (0.03 < B ≦ 0.05) | 8.00 to 8.52 | CN1C(C)(C)CC(Oc2ccc(C(=O)Nc3ccc(NC(=O)Nc4cc(C(C)(C)C)no4)cc3)nc2)CC1(C)C | ≥ 7.00 |  |
| B (0.03 < B ≦ 0.05) | > 8.52 | Cc1cc(NC(=O)c2ccc(OC3CC(C)(C)N(C)C(C)(C)C3)cn2)ccc1NC(=O)Nc1cc(C(C)(C)C)on1 | 6.60 to 7.00 |  |
| C (C > 0.05) | > 8.52 | CN1C(C)(C)CC(Oc2ccc(C(=O)Nc3ccc(NC(=O)Nc4cc(C(C)(C)C)on4)cc3)nn2)CC1(C)C | 6.00 to 6.60 |  |
| B (0.03 < B ≦ 0.05) | > 8.52 | CC(C)N1CC(Oc2ccc(C(=O)Nc3ccc(NC(=O)Nc4cc(C(C)(C)C)on4)cc3)nc2)C1 | ≥ 7.00 |  |
| A (A ≦ 0.03) | > 8.52 | CN1C(C)(C)CC(=O)C(c2ccc(C(=O)Nc3ccc(NC(=O)Nc4cc(C(C)(C)C)on4)cc3)nc2)C1(C)C (stereo not shown) | 6.60 to 7.00 |  |
| B (0.03 < B ≦ 0.05) | > 8.52 | CN1C(C)(C)CC(Oc2ccc(C(=O)Nc3ccc(NC(=O)Nc4cc(C(C)(CF)CF)on4)cc3)nc2)CC1(C)C | ≥ 7.00 |  |
| B (0.03 < B ≦ 0.05) | 8.00 to 8.52 | CN1C(C)(C)CC(Oc2cnc(C(=O)Nc3ccc(NC(=O)Nc4cc(C(C)(C)C)on4)cc3)cn2)CC1(C)C | 6.60 to 7.00 |  |
| B (0.03 < B ≦ 0.05) | 8.00 to 8.52 | CN1C(COc2ccc(C(=O)Nc3ccc(NC(=O)Nc4cc(C(C)(C)C)on4)cc3)nc2)CCC1(C)C (stereo not shown) | ≥ 7.00 |  |
| C (C > 0.05) | 8.00 to 8.52 | Cc1cc(NC(=O)Nc2cc(C(C)(C)C)on2)ccc1NC(=O)c1ccc(OC2CC(C)(C)N(C)C(C)(C)C2)cn1 | < 6.00 |  |
| C (C > 0.05) | > 8.52 | CN1C(C)(C)CC(Oc2ccc(C(=O)Nc3ccc(NC(=O)Nc4cc(C(F)(F)F)n(C)n4)cc3)nc2)CC1(C)C | 6.00 to 6.60 |  |
| C (C > 0.05) | > 8.52 | CC(C)N1CC[C@H](Oc2ccc(C(=O)Nc3ccc(NC(=O)Nc4cc(C(C)(C)C)on4)cc3)nc2)C1 | ≥ 7.00 |  |
| B (0.03 < B ≦ 0.05) | > 8.52 | CCN1CC(Oc2ccc(C(=O)Nc3ccc(NC(=O)Nc4cc(C(C)(C)C)on4)cc3)nc2)C1 | 6.60 to 7.00 |  |
| B (0.03 < B ≦ 0.05) | < 8.00 | CCN1C(C)(C)CC(Oc2ccc(C(=O)Nc3ccc(NC(=O)Nc4cc(C(C)(C)C)no4)cc3)nc2)CC1(C)C | ≥ 7.00 |  |
| B (0.03 < B ≦ 0.05) | 8.00 to 8.52 | CN1C(C)(C)CC(Oc2ccc(C(=O)Nc3ccc(NC(=O)Nc4cc(C(C)(C)C(F)(F)F)on4)cc3)nc2)CC1(C)C | ≥ 7.00 |  |
